From patent US11584714B2 (priority 2018, dated 2023) come the findings set out here.

Each structure is given as a SMILES string. Structures can show the parent of a compound that is named as a salt. Where two headings read alike, the source gives them in different places.

By Ki is commonly meant the dissociation constant of the complex between target and ligand, obtained from inhibition or displacement.

What all share (format): biochemical
One assay addresses MASP-2 (CCP1-CCP2-SP) (Homo sapiens (Human), UniProt O00187). As to the kind of experiment: biochemical. Particulars: for MASP-2 vs. thrombin selectivity: selectivity for MASP-2 inhibition versus thrombin.
Another assay deals with mMASP-2 (Mus musculus (Mouse), UniProt Q91WP0). As to the kind of experiment: Enzymatic inhibition of mMASP-2. Particulars: read-out: mMASP-2 Ki.
Another assay concerns the target human α-thrombin (Homo sapiens (Human), UniProt P00734). As to the kind of experiment: Enzymatic assay for thrombin (Boc-VPR-AMC substrate).

Sequence of mMASP-2 (Q91WP0 20-685): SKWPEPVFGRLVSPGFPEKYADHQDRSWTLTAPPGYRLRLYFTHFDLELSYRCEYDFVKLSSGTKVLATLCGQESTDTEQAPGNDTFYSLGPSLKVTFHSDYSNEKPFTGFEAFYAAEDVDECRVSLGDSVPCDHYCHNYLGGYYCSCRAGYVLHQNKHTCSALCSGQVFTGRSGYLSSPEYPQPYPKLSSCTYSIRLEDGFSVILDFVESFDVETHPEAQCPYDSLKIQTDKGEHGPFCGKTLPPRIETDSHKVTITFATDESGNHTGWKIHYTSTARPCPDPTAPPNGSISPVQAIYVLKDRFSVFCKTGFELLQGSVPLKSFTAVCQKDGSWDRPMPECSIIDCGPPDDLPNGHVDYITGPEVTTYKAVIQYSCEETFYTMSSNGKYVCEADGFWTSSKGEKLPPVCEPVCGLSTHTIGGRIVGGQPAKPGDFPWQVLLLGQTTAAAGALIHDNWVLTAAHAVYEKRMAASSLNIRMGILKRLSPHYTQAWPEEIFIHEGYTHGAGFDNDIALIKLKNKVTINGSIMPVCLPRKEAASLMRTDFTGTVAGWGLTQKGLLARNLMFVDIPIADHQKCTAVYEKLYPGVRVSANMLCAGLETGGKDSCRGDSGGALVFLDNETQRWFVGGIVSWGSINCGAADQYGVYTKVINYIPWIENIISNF
Sequence of MASP-2 (CCP1-CCP2-SP) (O00187 445-686): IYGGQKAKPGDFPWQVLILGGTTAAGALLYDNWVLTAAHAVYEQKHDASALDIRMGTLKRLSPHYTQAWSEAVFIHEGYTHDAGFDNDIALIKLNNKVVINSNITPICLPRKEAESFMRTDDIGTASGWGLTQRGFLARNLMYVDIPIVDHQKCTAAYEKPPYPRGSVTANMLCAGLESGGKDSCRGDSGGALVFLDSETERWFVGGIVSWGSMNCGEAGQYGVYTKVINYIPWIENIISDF

On to `Cc1nc(N)ccc1CNC(=O)[C@@H]1CCCN1C(=O)[C@H]1C[C@H](Cc2ccc(Br)cc2)CN1` [compound 1465, (S)—N-((6-Amino-2-methylpyridin-3-yl)methyl)-1-((2R,4S)-4-(4-bromobenzyl)pyrrolidine-2-carbonyl)pyrrolidine-2-carboxamide Di-trifluoroacetate salt], for which the Ki on MASP-2 (CCP1-CCP2-SP) (read-out: MASP-2 Ki) is below 500 nM; at mMASP-2, 500 to 2500 nM; on human α-thrombin (read-out: Thrombin Ki) it was below 0.5 µM. On MASP-2 (CCP1-CCP2-SP), the “MASP-2 vs. thrombin selectivity” value is “* (≥1.0 to <5.0-fold)”.
With `Cc1nc(N)ccc1CNC(=O)[C@H](C)NC(=O)[C@H]1C[C@H](Cc2ccc(Br)c(Cl)c2)CN1` [compound 1466, (2R,4S)—N—((S)-1-(((6-Amino-2-methylpyridin-3-yl)methyl)amino)-1-oxopropan-2-yl)-4-(4-bromo-3-chlorobenzyl)pyrrolidine-2-carboxamide Di-trifluoroacetate salt], the Ki is below 500 nM on MASP-2 (CCP1-CCP2-SP) (read-out: MASP-2 Ki), below 500 nM on mMASP-2 and 10 to 25 µM on human α-thrombin (Thrombin Ki (μM)). In addition, on MASP-2 (CCP1-CCP2-SP), the “MASP-2 vs. thrombin selectivity” value is “**** (≥100-fold)”.
As for `Cc1nc(N)ccc1CNC(=O)[C@H](C)NC(=O)c1cc(Cc2ccccc2)c[nH]1` [compound 1467, (S)—N-(1-(((6-Amino-2-methylpyridin-3-yl)methyl)amino)-1-oxopropan-2-yl)-4-benzyl-1H-pyrrole-2-carboxamide trifluoroacetic acid], the inhibition constant (Ki) on MASP-2 (CCP1-CCP2-SP) (read-out: MASP-2 Ki) is below 500 nM; at mMASP-2, 500 to 2500 nM; at human α-thrombin (read-out: Thrombin Ki), above 25 µM. Besides, on MASP-2 (CCP1-CCP2-SP), the “MASP-2 vs. thrombin selectivity” value is listed as “**** (≥100-fold)”.
Consider `Cc1cc(C[C@@H]2CN[C@@H](C(=O)N[C@@H](C)C(=O)NCc3cnc4c(c3)c(Cl)cn4C)C2)ccn1` [compound 1468, Trifluoroacetate], for which the Ki on MASP-2 (CCP1-CCP2-SP) (read-out: MASP-2 Ki) was below 500 nM; at mMASP-2 it was below 500 nM; on human α-thrombin (read-out: Thrombin Ki), above 25 µM. Moreover, on MASP-2 (CCP1-CCP2-SP), the “MASP-2 vs. thrombin selectivity” value was “**** (≥100-fold)”.
In the case of `Cc1cc(C[C@@H]2CN[C@@H](C(=O)N[C@@H](C)C(=O)NCc3ccc(N)nc3C)C2)ccn1` [compound 1469, (2R,4S)—N—((S)-1-(((6-Amino-2-methylpyridin-3-yl)methyl)amino)-1-oxopropan-2-yl)-4-((2-methylpyridin-4-yl)methyl)pyrrolidine-2-carboxamide Dihydrochloride], the Ki on MASP-2 (CCP1-CCP2-SP) (read-out: MASP-2 Ki) is below 500 nM; at mMASP-2 it was below 500 nM; at human α-thrombin (Thrombin Ki (μM)) it was 2.5 to 10 µM. For the same compound, the “MASP-2 vs. thrombin selectivity” value at MASP-2 (CCP1-CCP2-SP) is reported as “**** (≥100-fold)”.
Regarding `Cc1nc(N)ccc1CNC(=O)[C@H](C)NC(=O)[C@H]1C[C@H](Cc2ccc3nonc3c2)CN1` [compound 1470, (2R,4S)—N—((S)-1-(((6-Amino-2-methylpyridin-3-yl)methyl)amino)-1-oxopropan-2-yl)-4-(benzo[c][1,2,5]oxadiazol-5-ylmethyl)pyrrolidine-2-carboxamide Di-trifluoroacetate salt], the Ki on MASP-2 (CCP1-CCP2-SP) (read-out: MASP-2 Ki) was below 500 nM; on mMASP-2 it was below 500 nM; at human α-thrombin (Thrombin Ki (μM)), 2.5 to 10 µM. Further, the “MASP-2 vs. thrombin selectivity” value at MASP-2 (CCP1-CCP2-SP) is on record as “**** (≥100-fold)”.
As to `C[C@H](NC(=O)[C@H]1C[C@H](c2ccccc2)CN1)C(=O)NCc1cnc2sccc2c1` [compound 1471, (2R,4R)—N—((S)-1-oxo-1-((Thieno[2,3-b]pyridin-5-ylmethyl)amino)propan-2-yl)-4-phenylpyrrolidine-2-carboxamide Trifluoroacetate salt], the results for the Ki at MASP-2 (CCP1-CCP2-SP), on mMASP-2 and at human α-thrombin (read-out: Thrombin Ki) were 2500 to 10000 nM, 2500 to 10000 nM and above 25 µM, respectively.
With `C[C@H](NC(=O)[C@H]1C[C@H](Cc2ccccc2)CN1)C(=O)NCc1cc2cnccc2[nH]1` [compound 1472, (2R,4S)—N—((S)-1-(((1H-Pyrrolo[3,2-c]pyridin-2-yl)methyl)amino)-1-oxopropan-2-yl)-4-benzylpyrrolidine-2-carboxamide Di-trifluoroacetate salt], the results for the Ki at MASP-2 (CCP1-CCP2-SP) (read-out: MASP-2 Ki), at mMASP-2 and on human α-thrombin (Thrombin Ki (μM)) were below 500 nM, below 500 nM and 2.5 to 10 µM, respectively. For the same compound, at MASP-2 (CCP1-CCP2-SP), the “MASP-2 vs. thrombin selectivity” value is given as “**** (≥100-fold)”.
For the compound `Cc1nc(N)ccc1CNC(=O)[C@H](C)NC(=O)[C@H]1C[C@H](Cc2ccc(F)c(Cl)c2)CN1CCC(=O)O` [compound 1473, 3-((2R,4S)-2-(((S)-1-(((6-Amino-2-methylpyridin-3-yl)methyl)amino)-1-oxopropan-2-yl)carbamoyl)-4-(3-chloro-4-fluorobenzyl)pyrrolidin-1-yl)propanoic acid Trifluoroacetate salt], the values for the Ki at MASP-2 (CCP1-CCP2-SP) (read-out: MASP-2 Ki), at mMASP-2 and at human α-thrombin (read-out: Thrombin Ki) were below 500 nM, below 500 nM and above 25 µM, respectively.
Turning to `C[C@H](NC(=O)[C@H]1C[C@H](Cc2ccc(F)c(Cl)c2)CN1)C(=O)NCc1cnc2c(c1)c(Cl)cn2C` [compound 1474, (2R,4S)—N—((S)-1-(((3-Chloro-1-methyl-1H-pyrrolo[2,3-b]pyridin-5-yl)methyl)amino)-1-oxopropan-2-yl)-4-(3-chloro-4-fluorobenzyl)pyrrolidine-2-carboxamide Trifluoroacetate salt], the figures for the Ki at MASP-2 (CCP1-CCP2-SP) (read-out: MASP-2 Ki), on mMASP-2 and at human α-thrombin (read-out: Thrombin Ki) were below 500 nM, below 500 nM and above 25 µM, respectively. The “MASP-2 vs. thrombin selectivity” value on MASP-2 (CCP1-CCP2-SP) is on record as “**** (≥100-fold)”.
For `COc1ccc(C[C@@H]2CN[C@@H](C(=O)N[C@@H](C)C(=O)NCc3ccc(N)nc3C)C2)cc1Cl` [compound 1475, (2R,4S)—N—((S)-1-(((6-Amino-2-methylpyridin-3-yl)methyl)amino)-1-oxopropan-2-yl)-4-(3-chloro-4-methoxybenzyl)pyrrolidine-2-carboxamide Di-trifluoroacetate salt], the values for the inhibitory constant (Ki) on MASP-2 (CCP1-CCP2-SP) (read-out: MASP-2 Ki), at mMASP-2 and at human α-thrombin (Thrombin Ki (μM)) were below 500 nM, below 500 nM and 10 to 25 µM, respectively. Besides, on MASP-2 (CCP1-CCP2-SP), the “MASP-2 vs. thrombin selectivity” value is reported as “**** (≥100-fold)”.
On to `COc1cc2ccccc2cc1C[C@@H]1CN[C@@H](C(=O)N[C@@H](C)C(=O)NCc2ccc(N)nc2C)C1` [compound 1478, (2R,4S)—N—((S)-1-(((6-Amino-2-methylpyridin-3-yl)methyl)amino)-1-oxopropan-2-yl)-4-((3-methoxynaphthalen-2-yl)methyl)pyrrolidine-2-carboxamide Dihydrochloride], for which the Ki is below 500 nM on MASP-2 (CCP1-CCP2-SP) (read-out: MASP-2 Ki), below 500 nM on mMASP-2 and 10 to 25 µM on human α-thrombin (Thrombin Ki (μM)). Besides, the “MASP-2 vs. thrombin selectivity” value at MASP-2 (CCP1-CCP2-SP) was “**** (≥100-fold)”.
On to `Cc1nc(N)ccc1CNC(=O)[C@H](C)NC(=O)[C@H]1C[C@H](Cc2ccc(C)c3ccccc23)CN1` [compound 1479, (2R,4S)—N—((S)-1-(((6-Amino-2-methylpyridin-3-yl)methyl)amino)-1-oxopropan-2-yl)-4-((4-methylnaphthalen-1-yl)methyl)pyrrolidine-2-carboxamide Dihydrochloride], for which the results for the Ki at MASP-2 (CCP1-CCP2-SP) (read-out: MASP-2 Ki), at mMASP-2 and at human α-thrombin (Thrombin Ki (μM)) were below 500 nM, below 500 nM and 10 to 25 µM, respectively. Also, on MASP-2 (CCP1-CCP2-SP), the “MASP-2 vs. thrombin selectivity” value is “**** (≥100-fold)”.
Take `Cc1nc(N)ccc1CNC(=O)[C@H](C)NC(=O)[C@H]1CC(Cc2ccc(F)cc2)(Cc2ccc(F)cc2)CN1` [compound 1480, (R)—N—((S)-1-(((6-Amino-2-methylpyridin-3-yl)methyl)amino)-1-oxopropan-2-yl)-4,4-bis(4-fluorobenzyl)pyrrolidine-2-carboxamide Di-trifluoroacetate salt]: the inhibition constant Ki on MASP-2 (CCP1-CCP2-SP) (read-out: MASP-2 Ki) was below 500 nM; on mMASP-2, 500 to 2500 nM; at human α-thrombin (read-out: Thrombin Ki), above 25 µM. Also, the “MASP-2 vs. thrombin selectivity” value at MASP-2 (CCP1-CCP2-SP) is on record as “**** (≥100-fold)”.
`Cc1nc(N)ccc1CNC(=O)[C@H](C)NC(=O)[C@H]1C[C@H](C2(c3ccccc3)CC2)CN1` [compound 1481, (2R,4R)—N—((S)-1-(((6-Amino-2-methylpyridin-3-yl)methyl)amino)-1-oxopropan-2-yl)-4-(1-phenylcyclopropyl)pyrrolidine-2-carboxamide Di-trifluoroacetate salt]: the Ki on MASP-2 (CCP1-CCP2-SP) (read-out: MASP-2 Ki) is below 500 nM; on mMASP-2, below 500 nM; at human α-thrombin (Thrombin Ki (μM)) it was 2.5 to 10 µM. For the same compound, the “MASP-2 vs. thrombin selectivity” value on MASP-2 (CCP1-CCP2-SP) is on record as “**** (≥100-fold)”.
As to `C[C@H](NC(=O)[C@H]1C[C@H](Cc2ccccc2Br)CN1)C(=O)NCc1cnc2c(c1)c(Cl)cn2C` [compound 1482, (2R,4S)-4-(2-bromobenzyl)-N-((S)-1-(((3-chloro-1-methyl-1H-pyrrolo[2,3-b]pyridin-5-yl)methyl)amino)-1-oxopropan-2-yl)pyrrolidine-2-carboxamide Hydrochloride], the Ki on MASP-2 (CCP1-CCP2-SP) (read-out: MASP-2 Ki) was below 500 nM; at mMASP-2, below 500 nM; at human α-thrombin (Thrombin Ki (μM)), 0.5 to 2.5 µM. Moreover, at MASP-2 (CCP1-CCP2-SP), the “MASP-2 vs. thrombin selectivity” value was “*** (≥25 to <100-fold)”.
For the compound `Cc1nc(N)ccc1CNC(=O)[C@H](C)NC(=O)[C@H]1C[C@H](Cc2cc(Br)c(Cl)s2)CN1` [compound 1483, (2R,4R)—N—((S)-1-(((6-Amino-2-methylpyridin-3-yl)methyl)amino)-1-oxopropan-2-yl)-4-((4-bromo-5-chlorothiophen-2-yl)methyl)pyrrolidine-2-carboxamide Di-trifluoroacetate salt], the Ki is below 500 nM at MASP-2 (CCP1-CCP2-SP) (read-out: MASP-2 Ki), below 500 nM on mMASP-2 and 10 to 25 µM on human α-thrombin (Thrombin Ki (μM)). Further, on MASP-2 (CCP1-CCP2-SP), the “MASP-2 vs. thrombin selectivity” value is on record as “**** (≥100-fold)”.
On to `C[C@H](NC(=O)[C@H]1C[C@H](Cc2ccc(F)c(Cl)c2)CN1CC(=O)O)C(=O)NCc1cnc2c(c1)c(Cl)cn2C` [compound 1484, 2-((2R,4S)-2-(((S)-1-(((3-Chloro-1-methyl-1H-pyrrolo[2,3-b]pyridin-5-yl)methyl)amino)-1-oxopropan-2-yl)carbamoyl)-4-(3-chloro-4-fluorobenzyl)pyrrolidin-1-yl)acetic acid Trifluoroacetate salt], for which the Ki on MASP-2 (CCP1-CCP2-SP) was 500 to 2500 nM; on mMASP-2, 500 to 2500 nM; at human α-thrombin (read-out: Thrombin Ki) it was above 25 µM.
`Cc1cnc(NCCc2ccccc2)c(=O)n1CC(=O)NCc1cc(Cl)ccc1-n1cnnn1` [compound 1489, N-(5-Chloro-2-(1H-tetrazol-1-yl)benzyl)-2-(6-methyl-2-oxo-3-(phenethylamino)pyrazin-1(2H)-yl)acetamide]: the Ki is below 500 nM at MASP-2 (CCP1-CCP2-SP) (read-out: MASP-2 Ki), 500 to 2500 nM on mMASP-2 and below 0.5 µM at human α-thrombin (read-out: Thrombin Ki). Also, the “MASP-2 vs. thrombin selectivity” value at MASP-2 (CCP1-CCP2-SP) is “−− (<1.0-fold)”.
